According to publication PMC8017616, “Discovery of two novel laccase-like multicopper oxidases from Pleurotus citrinopileatus and their application in phenolic oligomer synthesis” (Biotechnology for Biofuels, 2021):
Where a name gives a salt, the structure may show the parent alone. Read-outs that look alike come from different tables or passages of the source.

What was measured:
Settings in all cases: 50 mM phosphate-citrate buffer pH 4; routine assay 35 °C
PcLac2 [1] = tested on: T1, PcLac2; experiment: spectrophotometric oxidation at […] nm, nonlinear Michaelis-Menten fit; format: biochemical, Pleurotus citrinopileatus
T1 construct: native, purified from culture supernatant (Q Sepharose, DEAE Sepharose); about 75 kDa by SDS-PAGE; band also holds a copper radical oxidase-like protein

PcLac1 [2] = tested on: T2, PcLac1; experiment: as above; format: biochemical, Pleurotus citrinopileatus
T2 construct: native, purified from culture supernatant (Q Sepharose, DEAE Sepharose); 60 kDa by SDS-PAGE

PcLac1 [3] = tested on: PcLac1
PcLac2 [4] = tested on: PcLac2

Row | Km (PcLac2 [1]) [µM] | Km (PcLac1 [2]) [µM] | Km (PcLac1 [3]) [µM] | Km (PcLac2 [4]) [µM] | SMILES
1 | 1070 ± 105 | 672 ± 56 | – | – | COc1cccc(OC)c1O [2,6-DMP, 2,6-dimethoxyphenol]
2 | – | – | 60 ± 7 | 165 ± 15 | CCn1c(=NN=c2sc3cc(S(=O)(=O)O)ccc3n2CC)sc2cc(S(=O)(=O)O)ccc21 [ABTS, 2,2′-Azino-bis-(3-ethylbenzthioazoline-6-sulfonic acid) diammonium salt]
